Assay results as given in the NIST ThermoML archive (doi:10.1021/je020145g).
± gives the expanded uncertainty stated by the source.

Assays:
[1] = DTA
[2] = Molar enthalpy of transition or fusion; details: DSC

Row | SMILES | Normal melting temperature ([1]; Crystal) [°C] | Molar enthalpy of transition or fusion ([2]; Crystal) [kJ/mol] | Normal melting temperature ([1]; Crystal 1) [°C] | Glass transition temperature ([1]; Glass) [°C] | Molar enthalpy of transition or fusion ([2]; Crystal 1) [kJ/mol]
1 | CCn1cc[n+](C)c1.F[P-](F)(F)(F)(F)F [1-ethyl-3-methylimidazolium hexafluorophosphate] | 59.7 ± 1 | 17.9 ± 0.56 |  |  | 
2 | CCCCn1cc[n+](C)c1.F[P-](F)(F)(F)(F)F [1-butyl-3-methylimidazolium hexafluorophosphate] |  |  | 3.28 ± 1 | -76.59 ± 0.5 | 9.21 ± 0.33
